Experimental data: ChEMBL document CHEMBL3817751, “Exploitation of a Novel Binding Pocket in Human Lipoprotein-Associated Phospholipase A2 (Lp-PLA2) Discovered through X-ray Fragment Screening” (J Med Chem, 2016)
Values after ≈ are worked out from the molar mass of the structure shown.

Key:
[1] = target: T1, Platelet-activating factor acetylhydrolase (Homo sapiens, UniProt Q13093); test: Inhibition of human recombinant Lp-PLA2 using PED6 as substrate preincubated for 30 mins followed by substrate addition measured for 20 mins by fluorescence assay
T1 sequence (Q13093 whole entry): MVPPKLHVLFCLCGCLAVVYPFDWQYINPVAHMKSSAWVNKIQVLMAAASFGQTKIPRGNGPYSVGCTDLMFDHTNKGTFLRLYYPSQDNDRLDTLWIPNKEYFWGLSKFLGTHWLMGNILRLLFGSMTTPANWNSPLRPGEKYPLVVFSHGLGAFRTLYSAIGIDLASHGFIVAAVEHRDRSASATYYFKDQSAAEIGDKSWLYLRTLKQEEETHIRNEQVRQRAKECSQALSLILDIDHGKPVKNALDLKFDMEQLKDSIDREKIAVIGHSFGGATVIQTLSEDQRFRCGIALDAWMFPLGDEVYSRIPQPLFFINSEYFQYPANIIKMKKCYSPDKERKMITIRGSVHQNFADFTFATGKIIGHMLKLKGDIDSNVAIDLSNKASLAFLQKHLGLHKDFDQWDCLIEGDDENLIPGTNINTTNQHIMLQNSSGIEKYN

[2] = target: T1, Platelet-activating factor acetylhydrolase; test: Binding affinity to N-terminal His6-tagged Lp-PLA2 (47 to 429 residues) (unknown origin) expressed in sf21 insect cells by ITC assay
[3] = target: T1, Platelet-activating factor acetylhydrolase; test: Inhibition of human recombinant Lp-PLA2 using 2-thio-PAF as substrate after 20 mins by CPM-based fluorescence assay
[4] = Inhibition of human recombinant PLA2-7B using 2-thio-PAF as substrate after 20 mins by CPM-based fluorescence assay
Homo sapiens = species on record: Homo sapiens; test: Selectivity ratio of IC50 for human recombinant PLA2-7B to IC50 for human recombinant Lp-PLA2
[5] = target: T1, Platelet-activating factor acetylhydrolase; test: Inhibition of Lp-PLA2 in human whole plasma using 2-thio-PAF as substrate preincubated for 15 mins followed by substrate addition measured after 3 mins by CPM-based fluorescence assay; format: cell-free
[6] = Lipophilicity, log D of the compound at pH 7.4 by reversed phase HPLC method; format: physicochemical; conditions: buffer
[7] = Binding affinity to human serum albumin/alpha-1 acidglycoprotein after 6 mins by HPLC method; format: ADME; conditions: human serum albumin/alpha-1 acid glycoprotein, read-out: PB (converted)
[8] = Solubility of the compound in pH 7.4 phosphate buffered saline after 1 hr by chemiluminescent nitrogen detection assay; format: physicochemical
[9] = Apparent permeability of the compound after 3 hrs by HPLC-UV method; format: physicochemical; conditions: not told

IC50 [1]	IC50 [3]	IC50 [4]	IC50 [5]	Compound	also measured
> 1000 µM				CC1(C)NC(=O)NC1=O	
500 µM				O=C(c1cccc(F)c1)N1CC=CC1	Kd [2]: 980 µM
	1.7 µM	11 µM		Cc1ccccc1-c1cc(Nc2nccs2)ccc1C	
	0.23 µM	89 µM		Cc1ccccc1-c1cc(C(=O)N2CC=CC2)ccc1C	
	30 µM	> 100 µM		Cc1ccccc1-c1cc(C(=O)N2CCCC2)ccc1C	
100 µM	100 µM	43 µM		Cc1ccc(N)cc1-c1ccccc1Cl	
	0.23 µM	> 10 µM	7.1 µM	Cc1ccccc1-c1cc(Nc2nc(CCCO)cs2)ccc1C	Ratio IC50 (Homo sapiens): > 40
	2 µM	3.2 µM		Cc1ccccc1-c1cc(C(=O)c2nccs2)ccc1C	
1000 µM				CC(C)COc1cc(=O)n(C)c(=O)n1C	
	0.18 µM	> 10 µM		Cc1ccc(C(=O)N2CC=CC2)cc1-c1ccccc1Cl	
	0.0024 µM	> 10 µM	0.028 µM	COC(CO)Cc1csc(Nc2cc(-c3ccccc3C)c(C)cc2OCCN)n1 (racemic)	chromatographic logD [6]: 3.4; fraction unbound at 0.1 h [7]: 0.03; solubility at 1 h [8]: 195 µM (≈ 83.4 µg/mL); Papp at 3 h [9]: 21 ×10⁻⁶ cm/s
	0.0014 µM	> 1 µM	0.018 µM	COC(CO)Cn1ccc(Nc2cc(-c3ccccc3C)c(C)cc2OCCN)n1 (racemic)	chromatographic logD [6]: 3.2; fraction unbound at 0.1 h [7]: 0.05; solubility at 1 h [8]: 302 µM (≈ 124 µg/mL); Papp at 3 h [9]: 13 ×10⁻⁶ cm/s
	0.0095 µM	> 10 µM	0.56 µM	COC(CO)Cc1csc(Nc2ccc(C)c(-c3ccccc3C)c2)n1 (racemic)	Ratio IC50 (Homo sapiens): > 1000
	0.0036 µM	6.1 µM	0.32 µM	COc1cc(C)c(-c2ccccc2C)cc1Nc1nc(CC(CO)OC)cs1 (racemic)	
> 1000 µM				NS(=O)(=O)c1ccccc1 [BENZENESULFONAMIDE]	Kd [2]: 3400 µM
		0.063 µM		CCN(CC)CCN(Cc1ccc(-c2ccc(C(F)(F)F)cc2)cc1)C(=O)Cn1c(SCc2ccc(F)cc2)nc(=O)c2c1CCC2 [DARAPLADIB]	chromatographic logD [6]: 6.2; fraction unbound at 0.1 h [7]: 0.02; solubility at 1 h [8]: 8 µM (≈ 5.33 µg/mL); Papp at 3 h [9]: 23 ×10⁻⁶ cm/s
